The results in this text go back to PMC10703884, “Targeting the COMMD4–H2B protein complex in lung cancer” (British Journal of Cancer, 2023).

No end group written: not given here.

Assay [1] concerns H460, H1299 and CRL5889 NSCLC cells. The experiment in a line: CellTiter-Glo 2.0 luminescent cell viability after IR, NSCLC cells. The conditions noted are these: CellTiter-Glo 2.0, 48 h post-irradiation, three independent experiments. The class given is cell-based. Here is the method: (§1) H1299, CRL5889 and H460 cells were cultured in Roswell Park Memorial Institute (RPMI) 1640 medium (Life Technologies) containing 10% foetal bovine serum (Thermo Fisher Scientific). Human bronchial epithelial cells (HBEC3-KT) were maintained in keratinocyte serum-free medium supplemented with epidermal growth factor and bovine pituitary extract (Life Technologies). The histology features and origin of all cell lines used have been previously described. Cell lines were authenticated using STR profiling. Cells were grown in a humidified incubator at 37 °C/5% CO2 atmosphere. All cell lines were verified to be free of mycoplasma contamination.
(§2) Irradiations were done at room temperature using a ^137Cs source (Gammacell 40 Exactor [MDS Nordion]; dose rate 1.1 Gy/min). […]
(§3) For siRNA transfections, cells were transfected with negative control or COMMD4 siRNA #2 (CCAUGUCCCUCUCAGCAGA[dT][dT] MISSION® siRNA, Sigma-Aldrich) using RNAiMax (Life Technologies) as previously described and samples were analysed 48 to 72 h post-transfection. […] Cells were mock-transfected, or transfected with FLAG-H2BWT/FLAG-H2BMUT1, or COMMD4-FLAG/A70K with FuGENE® HD (Promega) using the manufacturer’s protocol and analysed 24 h post-transfection.
(§4) A CellTiter-Glo 2.0 Luminescent assay (Promega Corporation) was carried out as previously described. […] Luminescence was measured using a PHERAstar FSX detection system (BMG Labtech). […]
Background: ATP-based viability assays read luminescence as a measure of living cells.

The subject of assay [2] is HBEC3-KT cells. The experiment in a line: CellTiter-Glo 2.0 luminescent cell viability after IR, HBEC3-KT cells. The class given is cell-based, Human. The conditions noted are these: CellTiter-Glo 2.0, 48 h post-irradiation, three independent experiments. Here is the method: as §1, §2, §3, §4
The test system of assay [3] is HBEC3-KT cells. Kind of assay: Clonogenic cell viability after IR, HBEC3-KT cells. The class given is cell-based, Human. The conditions noted are these: varying IR doses, 7–10 days recovery, three independent experiments. The protocol:
as §1
(§5) Irradiations were done at room temperature using a ^137Cs source (Gammacell 40 Exactor [MDS Nordion]; dose rate 1.1 Gy/min). Phalloidin-Atto 488 was purchased from Sigma-Aldrich and Hoechst 33342 was purchased from Thermo Fisher Scientific.
(§6) For siRNA transfections, cells were transfected with negative control or COMMD4 siRNA #2 (CCAUGUCCCUCUCAGCAGA[dT][dT] MISSION® siRNA, Sigma-Aldrich) using RNAiMax (Life Technologies) as previously described and samples were analysed 48 to 72 h post-transfection. […] Cells were mock-transfected, or transfected with FLAG-H2BWT/FLAG-H2BMUT1, or COMMD4-FLAG/A70K with FuGENE® HD (Promega) using the manufacturer’s protocol and analysed 24 h post-transfection. […]

Assay [4] has as its system H460, H1299 and CRL5889 NSCLC cells. The experiment in a line: Clonogenic cell viability after IR, NSCLC cells. It is filed as cell-based. The conditions noted are these: varying IR doses, 7–10 days recovery, three independent experiments, compared to control siRNA or FLAG-H2BMUT1/mock. Here is the method:
as §1, §5, §6

The test system of a further assay is COMMD4. The experiment in a line: FLAG pull-down in control and COMMD4 siRNA depleted cells. The note with it: overexpressed FLAG-H2B after control or COMMD4 siRNA. It is filed as binding. Here is the method:
For siRNA transfections, cells were transfected with negative control or COMMD4 siRNA #2 (CCAUGUCCCUCUCAGCAGA[dT][dT] MISSION® siRNA, Sigma-Aldrich) using RNAiMax (Life Technologies) as previously described and samples were analysed 48 to 72 h post-transfection. The H2B wild-type (FLAG-H2BWT) and mutant (FLAG-H2BMUT1) expression constructs were generated with the 10-amino acid peptide and the corresponding mutant cloned into the expression vector pCDNA3.1/(+)-N-DYK containing an N-terminal FLAG tag and a C-terminal nuclear localisation signal (AAKRVKLDS) (GenScript). A70K FLAG-COMMD4 expression construct was generated by mutating the corresponding COMMD4-FLAG construct to harbour an A70K mutation (GenScript). Cells were mock-transfected, or transfected with FLAG-H2BWT/FLAG-H2BMUT1, or COMMD4-FLAG/A70K with FuGENE® HD (Promega) using the manufacturer’s protocol and analysed 24 h post-transfection.
Co-immunoprecipitations were performed as previously summarised, using ice-cold NP40 buffer. Assays for co-immunoprecipitations were performed at 4 °C from HEK293T, transiently expressing the FLAG-H2B WT or MUT plasmid. Proteins were captured using anti-FLAG M2 Dynabeads (ThermoFisher) and washed three times in NP40 buffer prior to analysis.
To support predicted models, we next designed peptides to perform mapping. […]

As to “FLAG-H2BWT: 10-amino acid peptide cloned into expression vector containing an N-terminal FLAG tag and a C-terminal nuclear localisation signal ({FLAG}-SFVNDIFERIAAKRVKLDS)”, the “sensitivity to ionising radiation (luminescent viability)” value in assay [1] was “hypersensitive to IR compared to FLAG-H2BMUT1 and mock-transfected cells”; with HBEC3-KT cells [2] it was “not hypersensitive”. Also, the “sensitivity to ionising radiation (clonogenic viability)” value in the assay with HBEC3-KT cells [3] is listed as “neither hypersensitive to IR”; in assay [4], “resulted in a similar phenotype to COMMD4 siRNA depletion, albeit less pronounced, where hypersensitivity to IR was observed relative to cells expressing the mutant peptide (FLAG-H2BMUT1)”. In addition, the “binding to COMMD4 in control or COMMD4 siRNA-depleted cells” value in the assay on COMMD4 was “binding to COMMD4 was only possible in control siRNA-depleted cells”.
